From patent US10030006B2, “Coumarin based Hsp90 inhibitors with urea and ether substituents” (University of Kansas, priority 2013, dated 2018) come the findings set out here.

Read-outs that look alike come from different tables or passages of the source.

Format in all cases: cell-based
The test system of test [1] is A-549. Kind of test: Anti-proliferation assay, A-549. Here is the method:
(§1) Cells were maintained in a 1:1 mixture of Advanced DMEM/F12 (Gibco) supplemented with non-essential amino acids, L-glutamine (2 mM), streptomycin (500 μg/mL), penicillin (100 units/mL), and 10% FBS. Cells were grown to confluence in a humidified atmosphere (37° C., 5% CO2), seeded (2000/well, 100 μL) in 96-well plates, and allowed to attach overnight. Compound at varying concentrations in DMSO (1% DMSO final concentration) was added, and cells were returned to the incubator for 72 h. At 72 h, the number of viable cells was determined using an MTS/PMS cell proliferation kit (Promega) per the manufacturer's instructions. Cells incubated in 1% DMSO were used at 100% proliferation, and values were adjusted accordingly. IC50 values were calculated from separate experiments performed in triplicate using GraphPad Prism.

Test [2] relates to HCT-116. Kind of test: Anti-proliferation assay, HCT-116. Here is the method:
as §1

The test system of test [3] is MDAMB231. The test is described as follows: Anti-proliferation assay, MDAMB231. The following applies: Tri-Neg. As to the method:
as §1

For test [4], the system named is MRC5. The test is described as follows: Anti-proliferation assay, MRC5 (normal). The following applies: Homo sapiens, MRC5, Table 6, substituted phenyl ureas. Here is the method: as §1
Test [5] relates to HMLE. Kind of test: Anti-proliferation assay, HMLE (normal). The following applies: HMLE, Table 6, substituted phenyl ureas. Here is the method: as §1
Test [6] has as its system SKBr3 (estrogen receptor negative, Her2 over-expressing breast cancer cells). The test is described as follows: Anti-proliferation assay (MTS/PMS, 72 h), SKBr3. As to conditions: Breast Cancer, read-out: IC50 SKBr3. Here is the method:
as §1
(§2) The anti-proliferative activity of these compounds is evaluated against two breast cancer cell lines, SKBr3 (estrogen receptor negative, Her2 over-expressing breast cancer cells) and MCF-7 (estrogen receptor positive breast cancer cells).

The test system of test [7] is MDA1986. The test is described as follows: Anti-proliferation assay, MDA1986. The following applies: HSNCC. As to the method: as §1
Test [8] relates to MCF-7 (estrogen receptor positive breast cancer cells). The test is described as follows: Anti-proliferation assay (MTS/PMS, 72 h), MCF-7. As to conditions: Breast Cancer, read-out: IC50 MCF-3. As to the method:
as §1, §2

Test [9] concerns DRO81-1. Kind of test: Anti-proliferation assay, DRO81-1. As to conditions: Thyroid. As to the method: as §1
Test [10] concerns JMAR. Kind of test: Anti-proliferation assay, JMAR. As to conditions: HSNCC. Here is the method:
as §1

Test [11] has as its system PC-3. Kind of test: Anti-proliferation assay, PC-3. The following applies: Prostate Cancer. As to the method: as §1
[12] abbreviates: Homo sapiens, A549, Table 6, substituted phenyl ureas.
The mark [13] stands for this setting: Homo sapiens, HCT-116, Table 6, substituted phenyl ureas.
Where [14] appears, read: Homo sapiens, MDA-MB-231, Table 6, substituted phenyl ureas.
The mark [15] stands for this setting: Homo sapiens, SK-BR-3, Table 6, substituted phenyl ureas.
Where [16] appears, read: MDA1986, Table 6, substituted phenyl ureas.
The mark [17] stands for this setting: Homo sapiens, MCF7, Table 6, substituted phenyl ureas.
[18] abbreviates: Table 6, substituted phenyl ureas.
Where [19] appears, read: JMAR, Table 6, substituted phenyl ureas.
The mark [20] stands for this setting: Homo sapiens, PC-3, Table 6, substituted phenyl ureas.

Turning to `Cc1ccc(NC(=O)Nc2cc3ccc(OC4CCN(C)CC4)c(C)c3oc2=O)c(C)c1` [2,4-dimethyl, 1-(2,4-dimethylphenyl)-3-(8-methyl-7-((1-methylpiperidin-4-yl)oxy)-2-oxo-2H-chromen-3-yl)urea], the IC50 (as a rule, the concentration needed to halve the response being measured) was 430 nM in test [1] (setting [12]); 770 nM in test [2] (setting [13]); 2600 nM in [3] (setting [14]); 3600 nM in test [4]; more than 25000 nM in [5]; 3790 nM in test [6] (setting [15]). The IC50 in [7] (setting [16]) was determined as 1900 nM; in test [8] (setting [17]), 1110 nM; in test [9] (setting [18]) it was 2300 nM; in [10] (setting [19]), 1100 nM; in test [11] (setting [20]), 270 nM.
In the case of `Cc1c(OC2CCN(C)CC2)ccc2cc(NC(=O)Nc3ccc(Cl)c(Cl)c3)c(=O)oc12` [3,4-dichloro, 1-(3,4-dichlorophenyl)-3-(8-methyl-7-((1-methylpiperidin-4-yl)oxy)-2-oxo-2H-chromen-3-yl)urea], the IC50 worked out at 1820 nM in test [1] (setting [12]); 17000 nM in test [2] (setting [13]); 2900 nM in test [3] (setting [14]); 2100 nM in [4]; 1500 nM in test [5]; 640 nM in test [6] (setting [15]). Further, the IC50 in test [7] (setting [16]) was determined as 2600 nM; in [8] (setting [17]) it was 1780 nM; in test [9] (setting [18]), 13200 nM; in [10] (setting [19]) it was 6700 nM; in [11] (setting [20]), 2040 nM.
On to `Cc1ccc(NC(=O)Nc2cc3ccc(OC4CCN(C)CC4)c(C)c3oc2=O)cc1C` [3,4-dimethyl, 1-(3,4-dimethylphenyl)-3-(8-methyl-7-((1-methylpiperidin-4-yl)oxy)-2-oxo-2H-chromen-3-yl)urea], for which the half-maximal inhibitory concentration (IC50) in [1] (setting [12]) was determined as 63 nM; in test [2] (setting [13]), 66 nM; in [3] (setting [14]), 1900 nM; in test [4], 2700 nM; in [5], 900 nM; in test [6] (setting [15]), 310 nM. For the same molecule, the 50% inhibitory concentration (IC50) in [7] (setting [16]) was 1300 nM; in [8] (setting [17]), 330 nM; in test [9] (setting [18]), 8100 nM; in test [10] (setting [19]) it was 1700 nM; in test [11] (setting [20]), 1330 nM.
As to `Cc1c(OC2CCN(C)CC2)ccc2cc(NC(=O)Nc3cc(Cl)cc(Cl)c3)c(=O)oc12` [3,5-dichloro, 1-(3,5-dichlorophenyl)-3-(8-methyl-7-((1-methylpiperidin-4-yl)oxy)-2-oxo-2H-chromen-3-yl)urea], the IC50 was 200 nM in test [1] (setting [12]); 1210 nM in [2] (setting [13]); 3600 nM in test [3] (setting [14]); more than 25000 nM in test [4]; more than 25000 nM in test [5]; 510 nM in test [6] (setting [15]). The IC50 in test [7] (setting [16]) was 7500 nM; in test [8] (setting [17]), 490 nM; in test [9] (setting [18]) it was 770 nM; in test [10] (setting [19]) it was 6200 nM; in test [11] (setting [20]), 160 nM.
Regarding `Cc1cc(C)cc(NC(=O)Nc2cc3ccc(OC4CCN(C)CC4)c(C)c3oc2=O)c1` [3,5-dimethyl, 1-(3,5-dimethylphenyl)-3-(8-methyl-7-((1-methylpiperidin-4-yl)oxy)-2-oxo-2H-chromen-3-yl)urea], the concentration for half-maximal inhibition (IC50) in test [1] (setting [12]) came out at 52 nM; in test [2] (setting [13]) it was 170 nM; in [3] (setting [14]), 650 nM; in test [4], 5900 nM; in test [5], 13800 nM; in [6] (setting [15]), 300 nM. For the same molecule, the IC50 turned out to be 90 nM in test [7] (setting [16]); 340 nM in test [8] (setting [17]); 8400 nM in [9] (setting [18]); 3400 nM in test [10] (setting [19]); 1350 nM in test [11] (setting [20]).
On to `COc1ccc(C(C)(C)C)cc1NC(=O)Nc1cc2ccc(OC3CCN(C)CC3)c(C)c2oc1=O` [Compound 2-OMe-5-t-Bu, 1-(5-(tert-butyl)-2-methoxyphenyl)-3-(8-methyl-7-((1-methylpiperidin-4-yl)oxy)-2-oxo-2H-chromen-3-yl)urea], for which the IC50 in test [1] (setting [12]) worked out at 840 nM; in [2] (setting [13]), 1240 nM; in test [3] (setting [14]), 910 nM; in test [4], 2650 nM; in test [5], 6100 nM; in test [6] (setting [15]), 3870 nM. Besides, the half-maximal inhibitory concentration (IC50) came to 90 nM in test [7] (setting [16]); 1530 nM in test [8] (setting [17]); 6100 nM in [9] (setting [18]); 3800 nM in test [10] (setting [19]); 3820 nM in test [11] (setting [20]).
`Cc1c(OC2CCN(C)CC2)ccc2cc(NC(=O)NC3CCCC3)c(=O)oc12` [drawing 154]: the IC50 in [1] (Table 9, non-aryl ureas) is 1240 ± 940 nM; in test [2] (Table 9, non-aryl ureas), 7870 ± 7970 nM; in [3] (Table 9, non-aryl ureas), 650 nM; in test [6] (Table 9, non-aryl ureas), 2390 ± 350 nM; in test [7] (Table 9, non-aryl ureas) it was more than 25000 nM; in [8] (Table 9, non-aryl ureas) it was 3830 ± 330 nM. Further, the concentration for half-maximal inhibition (IC50) in [9] (Table 9, non-aryl ureas) was 8800 nM; in test [10] (Table 9, non-aryl ureas) it was more than 25000 nM; in test [11] (Table 9, non-aryl ureas), 2160 ± 1170 nM.
`Cc1c(OC2CCN(C)CC2)ccc2cc(NC(=O)NC3CCCCC3)c(=O)oc12` [drawing 155]: the IC50 in test [1] (Table 9, non-aryl ureas) was more than 100000 nM; in test [2] (Table 9, non-aryl ureas), 9210 ± 6540 nM; in [3] (Table 9, non-aryl ureas) it was more than 25000 nM; in test [6] (Table 9, non-aryl ureas) it was 3830 ± 330 nM; in test [7] (Table 9, non-aryl ureas) it was more than 25000 nM; in test [8] (Table 9, non-aryl ureas), 3840 ± 310 nM. Further, the IC50 in test [9] (Table 9, non-aryl ureas) was more than 25000 nM; in test [10] (Table 9, non-aryl ureas), more than 25000 nM; in [11] (Table 9, non-aryl ureas), 1670 nM.
As for `Cc1c(OC2CCN(C)CC2)ccc2cc(NC(=O)NC34CC5CC(CC(C5)C3)C4)c(=O)oc12` [drawing 156], the 50% inhibitory concentration (IC50) in test [1] (Table 9, non-aryl ureas) is 10 ± 10 nM; in test [2] (Table 9, non-aryl ureas) it was 82 ± 35 nM; in test [3] (Table 9, non-aryl ureas), 3000 nM; in test [7] (Table 9, non-aryl ureas), 5900 nM; in test [9] (Table 9, non-aryl ureas) it was 18700 nM; in test [10] (Table 9, non-aryl ureas) it was 6200 nM. Further, the half-inhibitory concentration (IC50) in test [11] (Table 9, non-aryl ureas) amounted to 19 ± 3 nM.
For the molecule `Cc1c(OC2CCN(C)CC2)ccc2cc(NC(=O)Nc3cccc(Cl)c3)c(=O)oc12` [m-Cl, 1-(3-chlorophenyl)-3-(8-methyl-7-((1-methylpiperidin-4-yl)oxy)-2-oxo-2H-chromen-3-yl)urea], the IC50 in [1] (setting [12]) came out at 63 nM; in [2] (setting [13]) it was 220 nM; in test [3] (setting [14]), 570 nM; in [4] it was 3100 nM; in [5], 22000 nM; in [6] (setting [15]), 300 nM. Also, the IC50 was 1700 nM in test [7] (setting [16]); 520 nM in test [8] (setting [17]); 3800 nM in test [9] (setting [18]); 1700 nM in test [10] (setting [19]); 1820 nM in test [11] (setting [20]).
Turning to `Cc1c(OC2CCN(C)CC2)ccc2cc(NC(=O)Nc3ccc(Br)cc3)c(=O)oc12` [p-Br, 1-(4-bromophenyl)-3-(8-methyl-7-((1-methylpiperidin-4-yl)oxy)-2-oxo-2H-chromen-3-yl)urea], the IC50 was 110 nM in [1] (setting [12]); 240 nM in [2] (setting [13]); 2600 nM in test [3] (setting [14]); 5500 nM in test [4]; 6000 nM in test [5]; 650 nM in [6] (setting [15]). Moreover, the concentration for half-maximal inhibition (IC50) was 3500 nM in test [7] (setting [16]); 1040 nM in [8] (setting [17]); 3500 nM in test [9] (setting [18]); 3600 nM in [10] (setting [19]); 180 nM in [11] (setting [20]).
With `Cc1c(OC2CCN(C)CC2)ccc2cc(NC(=O)Nc3ccc(C(C)(C)C)cc3)c(=O)oc12` [p-C(CH3)3, 1-(4-(tert-butyl)phenyl)-3-(8-methyl-7-((1-methylpiperidin-4-yl)oxy)-2-oxo-2H-chromen-3-yl)urea], the IC50 in [1] (setting [12]) was determined as 92 nM; in [2] (setting [13]) it was 210 nM; in [3] (setting [14]), 500 nM; in [4], 1800 nM; in test [5], 14500 nM; in [6] (setting [15]), 930 nM. Further, the half-maximal inhibitory concentration (IC50) in [7] (setting [16]) is 570 nM; in [8] (setting [17]), 960 nM; in test [9] (setting [18]), 710 nM; in [10] (setting [19]), 490 nM; in [11] (setting [20]), 140 nM.
